# Results reported in US20210030005A1, “BENZOXABOROLE COMPOSITIONS HAVING A GROWTH ENHANCING EFFECT” (BORAGEN, INC., priority 2018, published 2021).
# What was measured:
# Assay type in all cases: in vivo
# [1] = tested on: wheat seedlings; assay: Soil drench treatment on wheat seedlings (perlite); conditions: for Mean Root Length: 10 days after germination, measured 10 days following drench
# Method: (§1) Sample soil drench treatments were prepared by dissolving […], 3.19 mg, or 3.99 mg of BAG8 in 67.5 mL of acetone in separate vials. Each vial was then added to 202.5 mL of water and shaken vigorously to produce a suitable sample for soil drench treatment at rates of 75 g/A, 100 g/A, and 125 g/A, respectively.
# (§2) Wheat seeds were sown into pots filled with perlite growth medium and allowed to germinate under normal glass house conditions. 10 days after germination the pots were drenched with the respective BAG8 solutions. 10 days following the drench, root and stem lengths were measured. Analysis of variance was used to examine root length data and means were separated using Fisher's least significant difference at α=0.05.
# [2] = tested on: broccoli; assay: Soil drench growth enhancing effect, broccoli; conditions: for Average Dry Matter Weight / Average Root Length / Average Shoot Height: 4 treatments every 14 days, 14 days after final treatment
# Method: (§3) Boron-containing compounds/compositions were applied directly to the soil, and the growth of plants was measured. An exemplary embodiment of a benzoxaborole compound includes 5-chlorobenzo[c][1,2]oxaborol-1(3H)-ol, which may be referred to herein as BAG8.
# (§4) Eight 2-gallon pots were filled with steamed soil for each of the five treatments listed below:
# (§5) 3-4 seeds were planted into each pot at a depth of 1 inch and covered. All seedlings were subjected to 16 hours of daylight at ˜800 μmol/m^2/second (light intensity) provided by cool-white fluorescent lamps. Daytime temperatures were ˜25° C. and were dropped to ˜18° C. at night.
# (§6) Solutions were prepared by first dissolving the appropriate amount of benzoxaborole in ethanol or acetone then adding to distilled water. 100 mL of treatment was applied to each pot in a circular motion to evenly coat the surface of the soil. These treatments were applied every 14 days for a total of 4 treatments, including the at-planting treatment. Each pot was monitored, and 50 mL of distilled water was added to each pot when soil was dry.
# (§7) Germination and shoot height data were recorded every seven days. 14 days after the final treatment application, plants were carefully removed from each pot and final shoot length, root length, and dry matter weight were recorded.
# (§8) This experiment was conducted on red table beet, broccoli, snow pea, turnips, and spring wheat.
# [3] = tested on: maize seeds; assay: Seed treatment growth effect on maize (germination trays); conditions: for Mean Root Length / Mean Stem Length: suspension concentrate, 10 days
# Method: A sample suspension concentrate was prepared by mixing 0.8 g of Atlas G-5002L, 0.8 g ATLOX 4913, 5 g of glycerin, 50 mg of anti-foam compound, 0.178 g of xanthan gum, 89 mg of anti-microbial, 53.08 g of water, and 40 g of BAG8. […] […] The container was then shaken to evenly coat the seeds and allowed to dry overnight. Once dry, 50 seeds from each rate and 50 untreated seeds were placed in separate seed germination trays with moist paper towel. 10 days later, root and stem lengths from each seed were taken. Analysis of variance was used to examine root and stem length data and means were separated using Fisher's least significant difference at α=0.05.
# [4] = tested on: Southern Rust of Maize (Puccinia polysora); assay: Field trial, Southern Rust of Maize severity on maize
# Method: In this example, diseased maize having Southern Rust of Maize (Puccinia polysora) was treated with BAG8, Azoxystrobin, and Boscalid. Testing was performed to assess the fungicidal effect of the compounds on Southern Rust of Maize (Puccinia polysora) and to assess the growth enhancing effect of the compounds on the diseased maize.
# Maize was planted into 6×30 ft plots and replicated four times in a randomized complete block design. Three treatments and an untreated control were tested for efficacy against Southern Rust of Maize (Puccinia polysora) and assessed for yield at the conclusion of the growing season. Foliar applications of the three treatments, BAG8 at 0.25 pounds of active ingredient per acre, azoxystrobin at 0.25 pounds of active ingredient per acre, and boscalid at 0.24 pounds of active ingredient per acre, were applied to the plots at growth stage V8. Best practices were used consistently across the test plots with regard to field conditions such as fertilization, insect control, weed control, and irrigation. Disease assessments were taken in each plot 28 days after the foliar fungicide application. At maturity, each plot was harvested using standard harvesting equipment. After shelling, the kernels were weighed at 11% moisture and yield calculations extrapolated to bushels per acre.
# Analysis of variance (ANOVA) was used to examine disease severity data and means were separated using Fisher's least significant difference (LSD) method at α=0.05. […]
# [5] = tested on: soybean seedlings; assay: Soil drench treatment on soybean seedlings (perlite); conditions: for Mean Root Length: 10 days after germination, measured 10 days following drench
# Method: as §1
# as §2, with “Soybean” for “Wheat”, “root” for “root and stem”, “[…]” for “root”
# [6] = tested on: red table beet; assay: Soil drench growth enhancing effect, red table beet; conditions: for Average Dry Matter Weight / Average Root Length / Average Shoot Height: 4 treatments every 14 days, 14 days after final treatment
# Method: as §3, §4, §5, §6, §7, §8
# [7] = tested on: turnips; assay: Soil drench growth enhancing effect, turnip; conditions: for Average Dry Matter Weight / Average Root Length / Average Shoot Height: 4 treatments every 14 days, 14 days after final treatment
# Method: as §3, §4, §5, §6, §7, §8
# [8] = all rates (0.12-0.60 lb/A), soil drench
# [9] = treatment B, 0.12 lb/A soil drench
# [10] = treatment C, 0.25 lb/A soil drench
# [11] = treatment D, 0.35 lb/A soil drench
# [12] = treatment E, 0.60 lb/A soil drench
# [13] = all tested application rates, maize seed treatment
smiles,measurement,setting,value
"OB1OCc2cc(Cl)ccc21 [BAG8, 5-chlorobenzo[c][1,2]oxaborol-1(3H)-ol]",increased root length relative to untreated control,"[1]; all tested application rates, soil drench, wheat seedlings",27-45%
same,Mean Root Length,[1]; soil drench 75 g ai/A,580.4 mm
same,Mean Root Length,[1]; soil drench 100 g ai/A,524.2 mm
same,Mean Root Length,[1]; soil drench 125 g ai/A,507.0 mm
same,root length and dry matter weight compared with untreated control,[2]; [8],longer roots and greater dry matter weight than the untreated control
same,treatment effect on average shoot height,"[2]; all rates, soil drench",no treatment effect was present
same,Average Dry Matter Weight,[2]; [9],10.70 mg
same,Average Root Length,[2]; [9],5.60 cm
same,Average Shoot Height,[2]; [9],4.50 cm
same,Average Dry Matter Weight,[2]; [10],11.10 mg
same,Average Root Length,[2]; [10],5.20 cm
same,Average Shoot Height,[2]; [10],4.40 cm
same,Average Dry Matter Weight,[2]; [11],11.30 mg
same,Average Root Length,[2]; [11],5.30 cm
same,Average Shoot Height,[2]; [11],4.90 cm
same,Average Dry Matter Weight,[2]; [12],13.00 mg
same,Average Root Length,[2]; [12],6.50 cm
same,Average Shoot Height,[2]; [12],4.50 cm
same,increased root length relative to untreated control,[3]; [13],49-70%
same,increased stem length relative to untreated control,[3]; [13],54-75%
same,Mean Root Length,[3]; seed treatment 0.25 lb ai/A,122.0 mm
same,Mean Stem Length,[3]; seed treatment 0.25 lb ai/A,141.0 mm
same,Mean Root Length,[3]; seed treatment 0.50 lb ai/A,110.2 mm
same,Mean Stem Length,[3]; seed treatment 0.50 lb ai/A,124.5 mm
same,Mean Root Length,[3]; seed treatment 0.75 lb ai/A,125.1 mm
same,Mean Stem Length,[3]; seed treatment 0.75 lb ai/A,136.5 mm
same,reduced disease relative to the untreated control,[4]; 0.25 lb ai/A foliar,70%
same,Disease Severity (% Leaf Coverage),"[4]; 0.25 lb ai/A foliar at V8, 28 days after application",19.6 b % Leaf Coverage
same,increased root length,"[5]; all tested application rates, soil drench, soybean seedlings (Table 12)",6-27%
same,Mean Root Length,[5]; soil drench 75 g ai/A,329.5 mm
same,Mean Root Length,[5]; soil drench 100 g ai/A,275.8 mm
same,Mean Root Length,[5]; soil drench 125 g ai/A,309.7 mm
same,growth effect compared with untreated control,"[6]; all application rates (0.12-0.60 lb/A), soil drench","longer shoots, longer roots, and greater dry matter weight than the untreated control"
same,Average Dry Matter Weight,[6]; [9],10.70 mg
same,Average Root Length,[6]; [9],4.50 cm
same,Average Shoot Height,[6]; [9],3.33 cm
same,Average Dry Matter Weight,[6]; [10],11.10 mg
same,Average Root Length,[6]; [10],5.98 cm
same,Average Shoot Height,[6]; [10],4.24 cm
same,Average Dry Matter Weight,[6]; [11],11.30 mg
same,Average Root Length,[6]; [11],5.56 cm
same,Average Shoot Height,[6]; [11],4.09 cm
same,Average Dry Matter Weight,[6]; [12],13.00 mg
same,Average Root Length,[6]; [12],5.15 cm
same,Average Shoot Height,[6]; [12],5.01 cm
same,growth effect compared with untreated control,[7]; [8],"longer shoots, longer roots, and greater dry matter weight than the untreated control"
same,Average Dry Matter Weight,[7]; [9],6.40 mg
same,Average Root Length,[7]; [9],3.67 cm
same,Average Shoot Height,[7]; [9],1.81 cm
same,Average Dry Matter Weight,[7]; [10],7.62 mg
same,Average Root Length,[7]; [10],4.96 cm
same,Average Shoot Height,[7]; [10],2.09 cm
same,Average Dry Matter Weight,[7]; [11],7.82 mg
same,Average Root Length,[7]; [11],4.02 cm
same,Average Shoot Height,[7]; [11],2.18 cm
same,Average Dry Matter Weight,[7]; [12],6.36 mg
same,Average Root Length,[7]; [12],3.15 cm
same,Average Shoot Height,[7]; [12],2.13 cm
